The source of these data is patent publication US20250230147A1, “LACTAMS AS CBL-B INHIBITORS” (Genentech, Inc., priority 2021, published 2025).

The target of assay [1] is Cbl-b (Homo sapiens (Human), UniProt Q13191). Nature of the assay: Cbl-b LCK Ub TR-FRET assay (Cbl-b Lck HTRF). Format: biochemical. In a few lines:
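Biotin-Cbl-b preincubated with compound (10-point 3-fold series) 60 min, then His-LCK with 1 mM ATP (2× mixture) added for 90 min at room temperature. Ubiquitination detected by TR-FRET using HA-ubiquitin/UBE2D2 adduct, anti-HA-D2 and streptavidin-Eu; IC50 normalised to no-LCK and DMSO controls.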
(TR-FRET usually uses a lanthanide donor and a delayed reading to cut background.)

In assay [2] the target is c-Cbl (Homo sapiens (Human), UniProt P22681). In words: C-Cbl LCK Ub TR-FRET assay (c-cbl Lck HTRF). It is filed as biochemical. As to conditions: for (fold-selectivity): C-cbl Lck HTRF IC50 relative to Cbl-b Lck HTRF IC50. In a few lines:
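Detection reagents added, brief spin, 20 min RT. IC50 fit normalized to no-LCK (low) and DMSO (high) controls.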

Sequence of Cbl-b (Q13191 40-426): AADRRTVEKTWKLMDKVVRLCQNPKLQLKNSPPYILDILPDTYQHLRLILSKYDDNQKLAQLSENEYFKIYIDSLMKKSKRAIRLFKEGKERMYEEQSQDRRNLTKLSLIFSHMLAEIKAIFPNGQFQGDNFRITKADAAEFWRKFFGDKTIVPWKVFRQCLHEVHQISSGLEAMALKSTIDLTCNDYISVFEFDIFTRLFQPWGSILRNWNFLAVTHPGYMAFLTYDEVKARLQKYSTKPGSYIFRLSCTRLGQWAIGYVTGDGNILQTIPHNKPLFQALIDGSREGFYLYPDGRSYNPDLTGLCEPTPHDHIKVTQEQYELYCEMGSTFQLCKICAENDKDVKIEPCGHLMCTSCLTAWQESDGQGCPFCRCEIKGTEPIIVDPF
Sequence of c-Cbl (P22681 47-435): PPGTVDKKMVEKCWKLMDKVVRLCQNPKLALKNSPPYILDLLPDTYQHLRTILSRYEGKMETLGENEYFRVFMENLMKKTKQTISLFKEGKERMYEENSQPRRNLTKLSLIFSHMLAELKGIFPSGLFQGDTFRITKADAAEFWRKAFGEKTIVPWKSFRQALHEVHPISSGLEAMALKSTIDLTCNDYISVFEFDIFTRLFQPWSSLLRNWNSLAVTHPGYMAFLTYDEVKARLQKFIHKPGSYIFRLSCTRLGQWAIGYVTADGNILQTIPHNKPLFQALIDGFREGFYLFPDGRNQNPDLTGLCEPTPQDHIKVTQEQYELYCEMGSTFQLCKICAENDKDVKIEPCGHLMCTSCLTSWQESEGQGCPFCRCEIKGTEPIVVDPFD

A word on the IC50: it is the midpoint of a concentration-inhibition curve. High values mean weaker potency in that assay, low ones greater potency in that assay. Turning to `Cn1cnnc1[C@H](F)C1(c2cccc(N3Cc4c(cc(CN5CCC[C@@H]5CO)cc4C(F)(F)F)C3=O)c2)COC1` [Compound 147, 2-(3-(3-((R)-fluoro(4-methyl-4H-1,2,4-triazol-3-yl)methyl)oxetan-3-yl)phenyl)-6-(((R)-2-(hydroxymethyl)pyrrolidin-1-yl)methyl)-4-(trifluoromethyl)isoindolin-1-one], in assay [1], half-maximal inhibition (IC50) was put at 0.15 µM. In assay [2], 0.19 µM corresponded to half-maximal inhibition (IC50) and the “(fold-selectivity)” value is recorded as 1.3x.
On the same counts, the results for `Cn1cnnc1[C@@H](F)C1(c2cccc(N3Cc4c(cc(CN5CCC[C@@H]5CO)cc4C(F)(F)F)C3=O)c2)COC1` [Compound 148, 2-(3-(3-((S)-fluoro(4-methyl-4H-1,2,4-triazol-3-yl)methyl)oxetan-3-yl)phenyl)-6-(((R)-2-(hydroxymethyl)pyrrolidin-1-yl)methyl)-4-(trifluoromethyl)isoindolin-1-one] are 0.69 µM, 0.73 µM and 1.1x.
On the same counts, the results for `Cn1cnnc1[C@H](F)C1(c2cccc(N3Cc4c(cc(CN5CCC[C@H]5CO)cc4C(F)(F)F)C3=O)c2)COC1` [Compound 149, 2-(3-(3-((R)-fluoro(4-methyl-4H-1,2,4-triazol-3-yl)methyl)oxetan-3-yl)phenyl)-6-(((S)-2-(hydroxymethyl)pyrrolidin-1-yl)methyl)-4-(trifluoromethyl)isoindolin-1-one] are 0.38 µM, 0.39 µM and 1.0x.
For `Cn1cnnc1[C@@H](F)C1(c2cccc(N3Cc4c(cc(CN5CCC[C@H]5CO)cc4C(F)(F)F)C3=O)c2)COC1` [Compound 150, 2-(3-(3-((S)-fluoro(4-methyl-4H-1,2,4-triazol-3-yl)methyl)oxetan-3-yl)phenyl)-6-(((S)-2-(hydroxymethyl)pyrrolidin-1-yl)methyl)-4-(trifluoromethyl)isoindolin-1-one], the IC50 was found to be 1.4 µM in assay [1] and 1.5 µM in assay [2]. Besides, in assay [2], the “(fold-selectivity)” value was determined as 1.1x.
The matching figures for `Cn1cnnc1[C@H](F)C1(c2cccc(N3Cc4c(cc(CN5CCC[C@@H](CO)C5)cc4C(F)(F)F)C3=O)c2)COC1` [Compound 151, 2-(3-(3-((R)-fluoro(4-methyl-4H-1,2,4-triazol-3-yl)methyl)oxetan-3-yl)phenyl)-6-(((R)-3-(hydroxymethyl)piperidin-1-yl)methyl)-4-(trifluoromethyl)isoindolin-1-one]: 0.061 µM, 0.085 µM and 1.4x.
Turning to `Cn1cnnc1[C@@H](F)C1(c2cccc(N3Cc4c(cc(CN5CCC[C@@H](CO)C5)cc4C(F)(F)F)C3=O)c2)COC1` [Compound 152, 2-(3-(3-((S)-fluoro(4-methyl-4R-1,2,4-triazol-3-yl)methyl)oxetan-3-yl)phenyl)-6-(((R)-3-(hydroxymethyl)piperidin-1-yl)methyl)-4-(trifluoromethyl)isoindolin-1-one], the IC50 in assay [1] worked out at 0.22 µM. Moreover, in assay [2], the IC50 was determined as 0.28 µM and the “(fold-selectivity)” value came to 1.3x.
For `Cn1cnnc1[C@H](F)C1(c2cccc(N3Cc4c(cc(CN5CC6(C5)CC6(F)F)cc4C(F)(F)F)C3=O)c2)COC1` [Compound 153, (R)-6-((1,1-difluoro-5-azaspiro[2.3]hexan-5-yl)methyl)-2-(3-(3-(fluoro(4-methyl-4H-1,2,4-triazol-3-yl)methyl)oxetan-3-yl)phenyl)-4-(trifluoromethyl)isoindolin-1-one], the IC50 worked out at 0.027 µM in assay [1] and 0.06 µM in assay [2]. Also, in assay [2], the “(fold-selectivity)” value was 2.2x.
The matching figures for `Cn1cnnc1[C@@H](F)C1(c2cccc(N3Cc4c(cc(CN5CC6(C5)CC6(F)F)cc4C(F)(F)F)C3=O)c2)COC1` [Compound 154, (S)-6-((1,1-difluoro-5-azaspiro[2.3]hexan-5-yl)methyl)-2-(3-(3-(fluoro(4-methyl-4H-1,2,4-triazol-3-yl)methyl)oxetan-3-yl)phenyl)-4-(trifluoromethyl)isoindolin-1-one]: 0.072 µM, 0.23 µM and 3.2x.
The matching figures for `COC[C@H]1CCCN1Cc1cc2c(c(C(F)(F)F)c1)CN(c1cccc(C3([C@@H](F)c4nncn4C)COC3)c1)C2=O` [Compound 155, 2-(3-(3-((R)-fluoro(4-methyl-4H-1,2,4-triazol-3-yl)methyl)oxetan-3-yl)phenyl)-6-(((R)-2-(methoxymethyl)pyrrolidin-1-yl)methyl)-4-(trifluoromethyl)isoindolin-1-one]: 0.13 µM, 0.24 µM and 1.8x.
Regarding `COC[C@H]1CCCN1Cc1cc2c(c(C(F)(F)F)c1)CN(c1cccc(C3([C@H](F)c4nncn4C)COC3)c1)C2=O` [Compound 156, 2-(3-(3-((S)-fluoro(4-methyl-4H-1,2,4-triazol-3-yl)methyl)oxetan-3-yl)phenyl)-6-(((R)-2-(methoxymethyl)pyrrolidin-1-yl)methyl)-4-(trifluoromethyl)isoindolin-1-one], the IC50 in assay [1] came out at 0.92 µM; in assay [2], 5.2 µM. The fold of selectivity in assay [1] (Cbl-b over c-Cbl, Lck HTRF IC50) amounted to 5.6x. In addition, in assay [2], the “(fold-selectivity)” value came out at 5.6x.
Turning to `CN(CCC(C)(C)O)Cc1cc2c(c(C(F)(F)F)c1)CN(c1cccc(C3([C@@H](F)c4nncn4C)COC3)c1)C2=O` [Compound 157, (R)-2-(3-(3-(fluoro(4-methyl-4H-1,2,4-triazol-3-yl)methyl)oxetan-3-yl)phenyl)-6-(((3-hydroxy-3-methylbutyl)(methyl)amino)methyl)-4-(trifluoromethyl)isoindolin-1-one], it took 0.072 µM to reach half-maximal inhibition in assay [1] (IC50). In assay [2], the IC50 was 0.11 µM and the “(fold-selectivity)” value worked out at 1.6x.
On the same counts, the results for `CN(CCC(C)(C)O)Cc1cc2c(c(C(F)(F)F)c1)CN(c1cccc(C3([C@H](F)c4nncn4C)COC3)c1)C2=O` [Compound 158, (S)-2-(3-(3-(fluoro(4-methyl-4H-1,2,4-triazol-3-yl)methyl)oxetan-3-yl)phenyl)-6-(((3-hydroxy-3-methylbutyl)(methyl)amino)methyl)-4-(trifluoromethyl)isoindolin-1-one] are 0.27 µM, 0.28 µM and 1.0x.
The matching figures for `COC[C@@H]1CCCN1Cc1cc2c(c(C(F)(F)F)c1)CN(c1cccc(C3([C@@H](F)c4nncn4C)COC3)c1)C2=O` [Compound 159, 2-(3-(3-((R)-fluoro(4-methyl-4H-1,2,4-triazol-3-yl)methyl)oxetan-3-yl)phenyl)-6-(((S)-2-(methoxymethyl)pyrrolidin-1-yl)methyl)-4-(trifluoromethyl)isoindolin-1-one]: 0.35 µM, 1.2 µM and 3.4x.
The matching figures for `COC[C@@H]1CCCN1Cc1cc2c(c(C(F)(F)F)c1)CN(c1cccc(C3([C@H](F)c4nncn4C)COC3)c1)C2=O` [Compound 160, 2-(3-(3-((S)-fluoro(4-methyl-4H-1,2,4-triazol-3-yl)methyl)oxetan-3-yl)phenyl)-6-(((S)-2-(methoxymethyl)pyrrolidin-1-yl)methyl)-4-(trifluoromethyl)isoindolin-1-one]: 1.4 µM, 2.3 µM and 1.7x.
`Cn1cnnc1[C@H](F)C1(c2cccc(N3Cc4c(cc(CN5CC(C)(O)C5)cc4C(F)(F)F)C3=O)c2)COC1` [Compound 161, (R)-2-(3-(3-(fluoro(4-methyl-4H-1,2,4-triazol-3-yl)methyl)oxetan-3-yl)phenyl)-6-((3-hydroxy-3-methylazetidin-1-yl)methyl)-4-(trifluoromethyl)isoindolin-1-one] returned a half-maximal inhibitory concentration (IC50) in assay [1] of 0.062 µM. In addition, in assay [2], 0.11 µM corresponded to half-maximal inhibition (IC50) and the “(fold-selectivity)” value is on record as 1.7x.
On the same counts, the results for `Cn1cnnc1[C@@H](F)C1(c2cccc(N3Cc4c(cc(CN5CC(C)(O)C5)cc4C(F)(F)F)C3=O)c2)COC1` [Compound 162, (S)-2-(3-(3-(fluoro(4-methyl-4H-1,2,4-triazol-3-yl)methyl)oxetan-3-yl)phenyl)-6-((3-hydroxy-3-methylazetidin-1-yl)methyl)-4-(trifluoromethyl)isoindolin-1-one] are 0.19 µM, 0.33 µM and 1.7x.
The matching figures for `Cn1cnnc1[C@H](F)C1(c2cccc(N3Cc4c(cc(CN5CC(S(C)(=O)=O)C5)cc4C(F)(F)F)C3=O)c2)COC1` [Compound 163, (R)-2-(3-(3-(fluoro(4-methyl-4H-1,2,4-triazol-3-yl)methyl)oxetan-3-yl)phenyl)-6-((3-(methylsulfonyl)azetidin-1-yl)methyl)-4-(trifluoromethyl)isoindolin-1-one]: 0.13 µM, 0.24 µM and 1.9x.
On the same counts, the results for `Cn1cnnc1[C@@H](F)C1(c2cccc(N3Cc4c(cc(CN5CC(S(C)(=O)=O)C5)cc4C(F)(F)F)C3=O)c2)COC1` [Compound 164, (S)-2-(3-(3-(fluoro(4-methyl-4H-1,2,4-triazol-3-yl)methyl)oxetan-3-yl)phenyl)-6-((3-(methylsulfonyl)azetidin-1-yl)methyl)-4-(trifluoromethyl)isoindolin-1-one] are 0.35 µM, 0.64 µM and 1.8x.
On to `Cn1cnnc1[C@H](F)C1(c2cccc(N3Cc4c(cc(CN5CC6(CCC6)C5)cc4C(F)(F)F)C3=O)c2)COC1` [Compound 165, (R)-6-(2-azaspiro[3.3]heptan-2-ylmethyl)-2-(3-(3-(fluoro(4-methyl-4H-1,2,4-triazol-3-yl)methyl)oxetan-3-yl)phenyl)-4-(trifluoromethyl)isoindolin-1-one], for which the half-inhibitory concentration (IC50) was 0.035 µM in assay [1] and 0.073 µM in assay [2]. In addition, the “(fold-selectivity)” value in assay [2] was determined as 2.1x.
